Measurements as given in ChEMBL document CHEMBL1150038, “Conformation of the CYP2D6 model substrate sparteine under physiological conditions” (Bioorg Med Chem Lett, 1993).

Assay: pKa value was determined
Format: physicochemical

C1CCN2C[C@@H]3C[C@@H](CN4CCCC[C@@H]34)[C@H]2C1 [SPARTEINE]
pKa: 11.4
